This note sets out measurements from US20230227437A1, “IMMUNOMODULATOR” (priority 2020, published 2023).

For one experiment, the target named is T1, hIL-17A (Homo sapiens, UniProt Q16552).
T1 construct: purchased R&D 317-ILB
T1 sequence (Q16552 20-155 limits assumed): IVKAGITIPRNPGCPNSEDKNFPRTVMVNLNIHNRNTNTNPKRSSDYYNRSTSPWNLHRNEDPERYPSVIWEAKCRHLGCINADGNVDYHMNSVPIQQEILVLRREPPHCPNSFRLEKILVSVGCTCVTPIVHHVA
As to the kind of experiment: Inhibition of hIL-17A-induced chemokine GROα/CXCL1 production in HT-29 cell. It counts as cell-based. The procedure:
Human colorectal adenocarcinoma cell HT-29 was inoculated to a 96-well plate (5×10^4 for per well), and incubated at 37° C. on an incubator overnight. A mixture of 30 ng/mL hIL-17A protein (R&D, #317-ILB) with gradient concentrations of IL-17A small molecule inhibitors or with 0.3 μg/mL positive control IL-17A antibody (R&D, #AF-317-NA) was incubated for 1 h at 37° C., and added into the 96-well plate to incubated with HT-29 at 37° C. for 48 h. A level of GROα in a cell culture supernatant was then detected using an ELISA kit for GROα (Cisbio, #62HCXC1peg).
Inhibitory effect of the compound prepared in Examples on hIL-17A-induced chemokine GROα/CXCL1 production in HT-29 cell was tested according to the methods of Experimental Examples 1 and 2. […] “-” indicated not tested. According to the results, the compounds provided herein have good human IL-17A inhibitory activity and can be effectively used in the treatment of diseases associated with abnormal hIL-17A activity.

A further experiment deals with T2, human IL-17A (hIL-17A) (Homo sapiens, UniProt Q16552).
T2 construct: purchased Sino Biological Inc. 12047-H07B
T2 sequence (Q16552 24-155): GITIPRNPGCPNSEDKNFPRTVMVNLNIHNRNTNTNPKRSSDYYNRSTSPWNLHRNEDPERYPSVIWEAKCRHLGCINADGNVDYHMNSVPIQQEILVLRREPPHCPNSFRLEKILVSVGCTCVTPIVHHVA
As to the kind of experiment: IL-17A enzyme-linked immunosorbent assay (competitive ELISA, receptor-ligand binding). The protocol: The inhibition of receptor-ligand binding by human IL-17A (hIL-17A) inhibitors was detected by competitive ELISA. A 96-well plate was inoculated 0.2 μg/ml IL-17 (Sino Biological Inc. Cat #12047-H07B) for incubation at 37° C. for 30 min, 100 μL for per well. The 96-well plate was washed four times with phosphate buffered saline (PBS) containing Tween-20 (PBST, 0.05% Tween-20), 200 μL for per well each time. 200 μL of 5% skim milk were added into the 96-well plate for incubation on a shaker at 25° C. for 30 min. The 96-well plate was washed four times with PBST (0.05% Tween-20), and added with 89 μL of PBST and 1 μL of a compound to be measured (100×), in which a concentration the compound to be measured (100×) was 0.003 μM-30 μM. The mixture was mixed evenly and incubated at 25° C. for 10 min. The mixture was added with 10 μL of 16 nM IL-17R, followed by incubation at 25° C. for 30 min. After washing the 96-well plate 4 times, 100 μL of anti-Fc tag horseradish peroxidase (HRP) coupled antibody were added for incubation on a shaker at 25° C. for 30 min. After washing the 96-well plate 4 times, 100 μL of 3,3′,5,5′-tetramethylbenzidine (TMB) substrate solution were added to the 96-well plate for incubation away from light at 25° C. After addition of 20% HCl, an absorbance was measure by a microplate reader at 450 nm.
The compounds prepared according to the above method were assayed for human IL-17A inhibitory activity.
(In general: ELISA stands for enzyme-linked immunosorbent assay.)

For `Cc1n[nH]c(C)c1-c1ncc(NC(=O)[C@@H](NC(=O)c2ccnn2C(C)C)C2c3ccc(F)c(F)c3OCC23CC3)cc1F` (some centres unmarked) [Compound 51], the 50% inhibitory concentration (IC50) at hIL-17A turned out to be 0.313 µM; at human IL-17A (hIL-17A) it was 0.155 µM.
The matching figures for `Cc1nonc1C(=O)N[C@H](C(=O)Nc1ccc(-c2c(C)n[nH]c2C)cc1)C1c2ccc(F)c(F)c2OCC12CC2` (some centres unmarked) [Compound 57]: 0.346 µM and 0.112 µM.
In the same order, the values of `Cc1n[nH]c(C)c1-c1ncc(NC(=O)[C@@H](NC(=O)c2nonc2C(C)C)C2c3ccc(F)cc3OCC23CC3)cc1F` (some centres unmarked) [Compound 39] are 0.856 µM and 0.111 µM.
In the same order, the values of `Cc1nonc1C(=O)N[C@H](C(=O)Nc1ccc(-c2c(C)n[nH]c2C)cc1)C1c2cc(F)c(F)cc2OCC12CC2` (some centres unmarked) [Compound 42] are 0.07 µM and 0.04 µM.
`Cc1nonc1C(=O)N[C@H](C(=O)Nc1cnc(-c2c(C)n[nH]c2C)c(F)c1)C1c2ccc(F)cc2CC12CC2` (some centres unmarked) [Compound 29]: the half-maximal inhibitory concentration (IC50) against hIL-17A is 0.378 µM; at human IL-17A (hIL-17A), 0.152 µM.
In the case of `Cc1n[nH]c(C)c1-c1ccc(NC(=O)[C@@H](NC(=O)c2nocc2C(C)C)C2c3ccc(F)cc3OCC23CC3)cn1` (some centres unmarked) [Compound 33], the results for the IC50 at hIL-17A and on human IL-17A (hIL-17A) were 0.092 µM and 0.219 µM, respectively.
In the same order, the values of `Cc1n[nH]c(C)c1-c1ccc(NC(=O)[C@@H](NC(=O)c2nonc2C(C)C)C2c3cc(F)cc(F)c3OCC23CC3)cn1` (some centres unmarked) [Compound 73] are 0.795 µM and 0.294 µM.
As to `Cc1n[nH]c(C)c1-c1ccc(NC(=O)[C@@H](NC(=O)c2ccnn2C(C)C)C2c3cc(F)c(F)cc3OCC23CC3)cc1` (some centres unmarked) [Compound 48], the figures for the IC50 at hIL-17A and on human IL-17A (hIL-17A) were 0.184 µM and 0.135 µM, respectively.
`Cc1n[nH]c(C)c1-c1ccc(NC(=O)[C@@H](NC(=O)c2nonc2C2CC2)C2c3ccc(F)cc3OCC23CC3)cn1` (some centres unmarked) [Compound 95]: the IC50 against hIL-17A was 0.457 µM; on human IL-17A (hIL-17A), 0.094 µM.
In the same order, the values of `Cc1n[nH]c(C)c1-c1ncc(NC(=O)[C@@H](NC(=O)c2nonc2C(C)C)C2c3cc(F)c(F)cc3OCC23CC3)cc1F` (some centres unmarked) [Compound 46] are 0.122 µM and 0.095 µM.
The matching figures for `CCc1nocc1C(=O)N[C@H](C(=O)Nc1ccc(-c2c(C)n[nH]c2C)nc1)C1c2ccc(F)cc2OCC12CC2` (some centres unmarked) [Compound 34]: 0.063 µM and 0.12 µM.
In the same order, the values of `CCc1nonc1C(=O)N[C@H](C(=O)Nc1ccc(-c2c(C)n[nH]c2C)cc1)C1c2cc(F)ccc2OCC12CC2` (some centres unmarked) [Compound 25] are 0.194 µM and 0.056 µM.
On to `CCc1nonc1C(=O)N[C@H](C(=O)Nc1ccc(-c2c(C)n[nH]c2C)cc1)C1c2cc(F)cc(F)c2OCC12CC2` (some centres unmarked) [Compound 77], for which the half-maximal inhibitory concentration (IC50) was 1.01 µM against hIL-17A and 0.32 µM on human IL-17A (hIL-17A).
In the same order, the values of `Cc1n[nH]c(C)c1-c1ccc(NC(=O)[C@@H](NC(=O)c2ccnn2C(C)C)C2c3cc(F)ccc3OCC23CC3)cn1` (some centres unmarked) [Compound 20] are 0.878 µM and 0.061 µM.
Regarding `Cc1n[nH]c(C)c1-c1ccc(NC(=O)[C@@H](NC(=O)c2ccnn2C)C2c3ccccc3CC23CC3)cc1` (some centres unmarked) [Compound 1], the 50% inhibitory concentration (IC50) amounted to 0.404 µM at hIL-17A and 0.018 µM at human IL-17A (hIL-17A).
In the same order, the values of `Cc1n[nH]c(C)c1-c1ccc(NC(=O)[C@@H](NC(=O)c2ccnn2C(C)C)C2c3ccc(F)c(F)c3OCC23CC3)cn1` (some centres unmarked) [Compound 50] are 0.569 µM and 0.081 µM.
The matching figures for `Cc1n[nH]c(C)c1-c1ccc(NC(=O)[C@@H](NC(=O)c2nonc2C(C)C)C2c3ccc(F)c(F)c3OCC23CC3)cc1` (some centres unmarked) [Compound 65]: 0.212 µM and 0.222 µM.
In the same order, the values of `Cc1n[nH]c(C)c1-c1ccc(NC(=O)[C@@H](NC(=O)c2conc2C2CC2)C2c3ccc(F)cc3OCC23CC3)cn1` (some centres unmarked) [Compound 99] are 0.213 µM and 0.096 µM.
Turning to `Cc1n[nH]c(C)c1-c1ccc(NC(=O)[C@@H](NC(=O)c2nonc2C2CC2)C2c3ccc(F)c(F)c3OCC23CC3)cc1` (some centres unmarked) [Compound 87], the half-maximal inhibitory concentration (IC50) at hIL-17A came to 0.332 µM; at human IL-17A (hIL-17A), 0.165 µM.
With `Cc1n[nH]c(C)c1-c1ncc(NC(=O)[C@@H](NC(=O)c2nonc2C2CC2)C2c3ccc(F)c(F)c3OCC23CC3)cc1F` (some centres unmarked) [Compound 86], the IC50 was 0.718 µM at hIL-17A and 0.179 µM on human IL-17A (hIL-17A).
The matching figures for `Cc1n[nH]c(C)c1-c1ccc(NC(=O)[C@@H](NC(=O)c2ccnn2C(C)C)C2c3ccc(F)c(F)c3OCC23CC3)cc1` (some centres unmarked) [Compound 56]: 0.355 µM and 0.139 µM.
In the same order, the values of `Cc1n[nH]c(C)c1-c1ccc(NC(=O)[C@@H](NC(=O)c2ccnn2C(C)C)C2c3c(F)ccc(F)c3OCC23CC3)cc1` (some centres unmarked) [Compound 76] are 1.05 µM and 0.27 µM.
The matching figures for `Cc1n[nH]c(C)c1-c1ccc(NC(=O)[C@@H](NC(=O)C2(F)CC2)C2c3cc(F)c(F)cc3OCC23CC3)cc1` (some centres unmarked) [Compound 55]: 0.228 µM and 0.065 µM.
Consider `Cc1nonc1C(=O)N[C@H](C(=O)Nc1ccc(-c2c(C)n[nH]c2C)cc1)C1c2c(F)cccc2CC12CC2` (some centres unmarked) [Compound 14], for which the IC50 against hIL-17A worked out at 0.206 µM; on human IL-17A (hIL-17A), 0.059 µM.
In the same order, the values of `Cc1n[nH]c(C)c1-c1ncc(NC(=O)[C@@H](NC(=O)c2nonc2C(C)C)C2c3cc(F)cc(F)c3OCC23CC3)cc1F` (some centres unmarked) [Compound 68] are 1.94 µM and 0.503 µM.
The matching figures for `Cc1n[nH]c(C)c1-c1ccc(NC(=O)[C@@H](NC(=O)c2ccnn2C)C2c3cc(F)ccc3CC23CC3)cc1` (some centres unmarked) [Compound 2]: 0.196 µM and 0.041 µM.
The matching figures for `Cc1nonc1C(=O)N[C@H](C(=O)Nc1ccc(-c2c(C)n[nH]c2C)nc1)C1c2ccc(F)cc2CC12CC2` (some centres unmarked) [Compound 32]: 0.351 µM and 0.075 µM.
Regarding `Cc1n[nH]c(C)c1-c1ccc(NC(=O)[C@@H](NC(=O)c2ccnn2C)C2c3cc(F)ccc3OCC23CC3)cn1` (some centres unmarked) [Compound 22], the IC50 turned out to be 1.02 µM against hIL-17A and 0.085 µM at human IL-17A (hIL-17A).
The matching figures for `Cc1n[nH]c(C)c1-c1ccc(NC(=O)[C@@H](NC(=O)c2ccnn2C)C2c3c(F)cccc3CC23CC3)cc1` (some centres unmarked) [Compound 13]: 0.391 µM and 0.031 µM.
In the same order, the values of `Cc1n[nH]c(C)c1-c1ccc(NC(=O)[C@@H](NC(=O)c2nonc2C2CC2)C2c3cc(F)cc(F)c3OCC23CC3)cc1` (some centres unmarked) [Compound 80] are 0.762 µM and 0.406 µM.
The matching figures for `Cc1n[nH]c(C)c1-c1ccc(NC(=O)[C@@H](NC(=O)c2nocc2C(C)C)C2c3ccc(F)cc3OCC23CC3)cc1` (some centres unmarked) [Compound 35]: 0.085 µM and 0.311 µM.
For `Cc1n[nH]c(C)c1-c1ccc(NC(=O)[C@@H](NC(=O)c2ccnn2C)C2c3cc(F)ccc3OCC23CC3)cc1` (some centres unmarked) [Compound 4], the IC50 against hIL-17A and at human IL-17A (hIL-17A) was 0.05 µM in each case.
In the case of `CCn1nccc1C(=O)N[C@H](C(=O)Nc1ccc(-c2c(C)n[nH]c2C)nc1)C1c2cc(F)ccc2OCC12CC2` (some centres unmarked) [Compound 21], the half-inhibitory concentration (IC50) against hIL-17A was determined as 0.506 µM; at human IL-17A (hIL-17A), 0.066 µM.
In the same order, the values of `CCc1nocc1C(=O)N[C@H](C(=O)Nc1ccc(-c2c(C)n[nH]c2C)cc1)C1c2ccc(F)cc2OCC12CC2` (some centres unmarked) [Compound 36] are 0.058 µM and 0.144 µM.
As for `Cc1n[nH]c(C)c1-c1ccc(NC(=O)[C@@H](NC(=O)c2ccnn2C(C)C)C2c3cc(F)c(F)cc3OCC23CC3)cn1` (some centres unmarked) [Compound 62], the concentration for half-maximal inhibition (IC50) was found to be 0.177 µM against hIL-17A and 0.151 µM at human IL-17A (hIL-17A).
The matching figures for `Cc1n[nH]c(C)c1-c1ncc(NC(=O)[C@@H](NC(=O)c2conc2C2CC2)C2c3ccc(F)cc3OCC23CC3)cc1F` (some centres unmarked) [Compound 100]: 0.563 µM and 0.189 µM.
In the same order, the values of `Cc1n[nH]c(C)c1-c1ccc(NC(=O)[C@@H](NC(=O)c2conc2C2CC2)C2c3cc(F)c(F)cc3OCC23CC3)cn1` (some centres unmarked) [Compound 97] are 0.221 µM and 0.165 µM.

As usually defined, the IC50 is the concentration at which inhibition is half-maximal. Read a high IC50 as weaker potency.
